Consider 5 compounds from patent publication US20260021082A1, “EZH2 INHIBITION THERAPIES FOR THE TREATMENT OF AT-RICH INTERACTIVE DOMAIN-CONTAINING PROTEIN 1A (ARID1A) MUTATED CANCERS” (Constellation Pharmaceuticals, Inc., priority 2022, published 2026).

By GI50 is commonly meant the concentration giving 50% growth inhibition. The Cmax is the maximum level reached in the sampled fluid or tissue. By Tmax is commonly meant the time from dosing to the highest level.

The test system of data set [1] is ARID1A mutant HT1376 bladder cancer xenografts. Kind of data set: HT1376 xenograft tumor growth inhibition. Type of data set: in vivo, mice. As to conditions: ARID1A mutated HT1376 xenograft, 75 mg/kg QD; for tumor growth inhibition (TGI) compared to vehicle: day 27. The procedure: Data represented as mean tumor volume+SEM, with n=5 mice per group for all groups except 150 mg/kg, which had n=3. P-values calculated using 2-way ANOVA up to day 30, ns=p>0.05, *p<0.05. […]
Cell line derived xenograft tumor experiments were performed at WuXi AppTec, Shanghi, China. Patient derived xenograft experiments were performed at Crown BioScience Inc., Taicang Jiangsu Province, China, or Champions Oncology, Rockville, MD, US. All the procedures related to animal handling, care and the treatment in the xenograft studies were performed according to the guidelines approved by the Institutional Animal Care and Use Committee (IACUC) of WuXi AppTec or Crown BioScience Inc. following the guidance of the Association for Assessment and Accreditation of Laboratory Animal Care (AAALAC). The mice were kept in individual ventilation cages at constant temperature and humidity with 3-5 animals in each cage. Mice were checked daily for any effects of tumor growth and/or treatments on normal behavior such as mobility, food and water consumption, body weight gain/loss, eye, and any other abnormal effects. […] Animal body weight was monitored regularly as an indirect measurement of toxicity. Supplemented diet was provided after cell inoculation for all groups to help with body weight maintenance. If an animal lost >15% body weight, their treatments were suspended accordingly then resumed when body weight loss returned to <10%.
The HT1376 and HT1197 bladder cancer cell lines and Karpas-422 lymphoma cell line were expanded in vitro under routine subculturing procedures in the medium recommended by the supplier, harvested while in the exponential growth phase, and counted for tumor inoculation. For HT1376 and Karpas-422 studies, female CB17 SCID mice at 6-8 weeks of age were used for study initiation; for the HT1197 study, female Balb/c nude mice at 6-8 weeks of age were used. Each mouse was inoculated subcutaneously in the right flank with tumor cells in 0.2 ml PBS mixed with Matrigel (BD Biosciences); 5×10^6 cells per injection were used for HT1376 and Karpas-422 cell lines and 1×10^7 cells per injection for HT1197 cells. […] Mice undergoing extended dosing holidays due to body weight loss (>10 days, n=2 mice in the 150 mg/kg Compound 1 HT1376 group only), were censored from the study and not included in the data presented.
Tumor size was measured thrice weekly in two dimensions using a caliper, and the volume was expressed in mm3 using the formula: V=0.5a×b2 where a and b are the long and short diameters of the tumor, respectively. TGI was calculated for each group using the formula: TGI (%)=[1−(Ti−T0)/(Vi−V0)]×100; Ti is the average tumor volume of a treatment group on a certain day, T0 is the average tumor volume of the treatment group on the day of treatment start, Vi is the average tumor volume of the vehicle control group on the same day with Ti, and V0 is the average tumor volume of the vehicle group on the day of treatment start.
To further explore the potential dose dependence of Compound 1 on tumor growth inhibition in vivo, HT1376 xenograft studies were carried out using Compound 1 doses from 10 to 150 mg/kg QD orally once daily (PO, QD). […]

Data set [2] can be described thus: long-term cell viability assays in vitro, comparison of PRC2 inhibitors. Type of data set: cell-based. The procedure:
(§1) Response of Compound 1 treatment relative to other EZH2, dual EZH1 and EZH2, or EED inhibitors was analyzed in vitro and in vivo.

A short description of data set [3]: pharmacokinetics in the ARID1A mutant HT1376 xenograft mouse model. In kind it is in vivo. Here is the method: as §1
Setting [4] is: CB17 SCID, mouse, in vivo, 75 mg/kg.
[5] abbreviates: Day 1, 75 mg/kg, HT1376 xenograft mouse, plasma.

`COc1cc(C)[nH]c(=O)c1CNC(=O)c1c(C)n([C@H](C)C2CCN(CC(F)(F)F)CC2)c2ccccc12` [CPI-1205]: the “tumor growth inhibition (TGI) compared to vehicle” value in data set [1] was determined as 40%. The compound further came in with a GI50 in data set [2] of 574 nM. In addition, in data set [3] (setting [4]), the “Cmax” value is 50800 ng/mL, the “T1/2” value came to 1.24 h and the “Tmax” value came to 0.50 h. Moreover, the “AUClast (hg*ng/mL)” value in data set [3] (mouse, in vivo, 75 mg/kg) was 59900 hg*ng/mL.

`Cc1ncccc1-c1cnc(NCc2c(F)ccc3c2CCO3)n2cnnc12` [MAK683] came in with a GI50 in data set [2] of 73 nM. For the same compound, in data set [3] (mouse, in vivo, 75 mg/kg), the “AUClast (hg*ng/mL)” value turned out to be 13100 hg*ng/mL, the “Cmax” value was determined as 5660 ng/mL, the “T1/2” value stood at 1.18 h and the “Tmax” value was 1.00 h.

`COc1cc(C)[nH]c(=O)c1CN1CCc2c(Cl)cc([C@H](OC)C3COC3)c(Cl)c2C1=O` [PF-06821497]: in data set [1], the “tumor growth inhibition (TGI) compared to vehicle” value was 41%. Further, in data set [2], the GI50 is about 5 nM. Further, in data set [3] (mouse, in vivo, 75 mg/kg), the “AUClast (hg*ng/mL)” value came to 3380 hg*ng/mL, the maximum concentration (Cmax) turned out to be 3740 ng/mL, the “T1/2” value is 1.01 h and the time of peak concentration (Tmax) stood at 0.50 h.

On to `CCN(c1cc(-c2ccc(CN3CCOCC3)cc2)cc(C(=O)NCc2c(C)cc(C)[nH]c2=O)c1C)C1CCOCC1` [tazemetostat], for which the “tumor growth inhibition (TGI) compared to vehicle” value in data set [1] came out at 32%. The GI50 in data set [2] turned out to be 385 nM. In addition, in data set [3] (setting [5]), the “AUClast (hg*ng/mL)” value is recorded as 23200 hg*ng/mL, the “Cmax” value came out at 9530 ng/mL, the “T1/2” value stood at 1.43 h and the “Tmax” value was determined as 0.50 h.

In the case of `Cc1cc(C)c(CNC(=O)c2cc(Cl)c3c(c2C)O[C@@](C)([C@H]2CC[C@H](N(C)C)CC2)O3)c(=O)[nH]1` [valemetostat], the “tumor volume course during treatment” value in data set [1] is listed as “did not reach full regression”. Further, growth in data set [2] was halved (GI50) at 18 nM. In addition, in data set [3] (setting [5]), the “AUClast (hg*ng/mL)” value is on record as 7600 hg*ng/mL, the “Cmax” value worked out at 3090 ng/mL, the “T1/2” value was 3.00 h and the time of peak concentration (Tmax) stood at 1.33 h.
